Laboratory results taken from patent publication US11613546B2, “Substituted pyridotriazine compounds and uses thereof” (Gilead Sciences, Inc., priority 2021, dated 2023).
Like-named read-outs stand apart in the source and are kept apart here.

Assays:
Format in all cases: cell-based
[1] = Cytotoxicity assay in MT-4 cells; settings: human, uninfected MT-4 cells, 5 days, Cell Titer Glo; read-out: CC50
Description: (§1) Compounds were tested in a high-throughput 384-well assay format for their ability to inhibit the replication of HIV-1 (IIIB) in MT-4 cells. Compounds were serially diluted (1:3) in DMSO on 384-well polypropylene plates and further diluted 200-fold into complete RPMI media (10% FBS, 1% P/S) using the Biotek Micro Flow and Labcyte ECHO acoustic dispenser. Each plate contained up to 8 test compounds, with negative (No Drug Control) and 5 μM AZT positive controls. MT-4 cells were pre-infected with 10 μL of either RPMI (mock-infected) or a fresh 1:250 dilution of HIV-1 IIIB concentrated virus stock. Infected and uninfected MT-4 cells were further diluted in complete RPMI media and added to each plate using a Micro Flow dispenser. After 5 days incubation in a humidified and temperature controlled incubator (37° C.), Cell Titer Glo (Promega) was added to the assay plates and chemiluminescence read using an Envision plate-reader. EC50 values were defined as the compound concentration that causes a 50% decrease in luminescence signal, and were calculated using a sigmoidal dose-response model to generate curve fits. Cytotoxicity Assay in MT-4 Cells Assays were performed as above except uninfected MT-4 cells were added to each well containing test compound. In addition, 10 μM puromycin was added to the last column of each assay plate to assess a base level of cytotoxicity.

[2] = tested on: pLai RLuc reporter virus; experiment: HIV MT-4 serum shift antiviral reporter assay; settings: Human immunodeficiency virus 1, 72 h
Description: To quantify the amount of protein binding to human serum, compounds were serially diluted (1:3) in DMSO and acoustically transferred onto 384-well assay plates via a Labcyte ECHO robot. Each plate contained up to 8 test compounds, including negative and positive controls, (DMSO, 5 μM AZT respectively). Assay plates were prepared in duplicate, and tested in either CCM (cell culture media) or HS/CCM (human serum/cell culture media). MT-4 cells were first pre-infected with pLai RLuc reporter virus for 2 h at 37° C., then further diluted in either CCM (RPMI media, 10% FBS, 1% P/S) or HS/CCM (RPMI media, 10% FBS, 50% HS, 1% P/S), and subsequently added to each plate using a Biotek Micro Flow dispenser. After a 72-h incubation in a humidified and temperature controlled incubator (37° C.), Renilla Glo (Promega) was added to all assay plates and chemiluminescence read using an Envision plate-reader. EC50 values were defined as the compound concentration that causes a 50% decrease in luminescence signal, and were calculated using a sigmoidal dose-response model to generate curve fits. To determine the amount of protein binding, EC50 fold shifts (or EC50 shifts) were calculated by dividing EC50 (HS/CCM)/EC50 (CCM).

[3] = tested on: HIV-1 (IIIB); experiment: Antiviral assay in MT-4 cells; settings: Human immunodeficiency virus 1, IIIB, MT4, 120 h
Description: Antiviral Assay in MT-4 Cells
as §1, with “fits.” for “fits. Cytotoxicity Assay in MT-4 Cells Assays were performed as above except uninfected MT-4 cells were added to each well containing test compound. In addition, 10 μM puromycin was added to the last column of each assay plate to assess a base level of cytotoxicity.”

[4] = read-out: RLUC 50% HS (nM), HS/CCM: 50% human serum, 72 h, Renilla Glo
[5] = read-out: RLUC CCM (nM), cell culture media (RPMI, 10% FBS), 72 h, Renilla Glo
[6] = HIV-1 IIIB infected MT-4 cells, 5 days, Cell Titer Glo, read-out: MT4 EC50

SMILES | CC50 at 5 days [1] | EC50 [2, 4] | EC50 [2, 5] | EC50 [3, 6] | EC50 ([3]; read-out: MT4 EC50 (nM))
C[C@H]1CCCCN2CN1n1cc(C(=O)NCc3ccc(F)cc3F)c(=O)c(O)c1C2=O [Example C42, (1R,2S)—N-(2,4-difluorobenzyl)-9-hydroxy-2-methyl-8,10-dioxo-3,4,5,6,8,10-hexahydro-2H-1,7-methanopyrido[1,2-b][1,2,5]triazecine-11-carboxamide] | 7030 nM | 1880 nM | 2.47 nM | 2.2 nM | 
CO[C@@H]1CC[C@H](C)N2CN1n1cc(C(=O)NCc3c(F)cc(F)cc3F)c(=O)c(O)c1C2=O [Example C47, (1R,2R,5S)-8-hydroxy-2-methoxy-5-methyl-7,9-dioxo-N-(2,4,6-trifluorobenzyl)-2,3,4,5,7,9-hexahydro-1,6-methanopyrido[1,2-b][1,2,5]triazonine-10-carboxamide] | 11500 nM | 196 nM | 1.71 nM | 1.8 nM | 
C[C@@H]1C=C[C@H](CF)N2CN1n1cc(C(=O)NCc3c(F)cc(F)cc3F)c(=O)c(O)c1C2=O [Example C50, (1S,2R,5R)-5-(fluoromethyl)-8-hydroxy-2-methyl-7,9-dioxo-N-(2,4,6-trifluorobenzyl)-2,5,7,9-tetrahydro-1,6-methanopyrido[1,2-b][1,2,5]triazonine-10-carboxamide] | 13300 nM | 850 nM | 0.37 nM | 0.85 nM | 
C[C@@H]1C[C@H](F)[C@H](C)N2CN1n1cc(C(=O)NCc3ccc(F)cc3F)c(=O)c(O)c1C2=O [Example C52, (1S,2R,4S,5S)—N-(2,4-difluorobenzyl)-4-fluoro-8-hydroxy-2,5-dimethyl-7,9-dioxo-2,3,4,5,7,9-hexahydro-1,6-methanopyrido[1,2-b][1,2,5]triazonine-10-carboxamide] | 9220 nM | 473 nM | 0.77 nM | 1.5 nM | 
C[C@@H]1C[C@@H](F)[C@H](C)N2CN1n1cc(C(=O)NCc3ccc(F)cc3F)c(=O)c(O)c1C2=O [Example C53, (1S,2R,4R,5S)—N-(2,4-difluorobenzyl)-4-fluoro-8-hydroxy-2,5-dimethyl-7,9-dioxo-2,3,4,5,7,9-hexahydro-1,6-methanopyrido[1,2-b][1,2,5]triazonine-10-carboxamide] | 9010 nM | 350 nM | 0.55 nM | 1.3 nM | 
C[C@@H]1CC(F)(F)[C@H](C)N2CN1n1cc(C(=O)NCc3ccc(F)cc3F)c(=O)c(O)c1C2=O [Example C54, (1S,2R,5S)—N-(2,4-difluorobenzyl)-4,4-difluoro-8-hydroxy-2,5-dimethyl-7,9-dioxo-2,3,4,5,7,9-hexahydro-1,6-methanopyrido[1,2-b][1,2,5]triazonine-10-carboxamide] | 47400 nM | 72.4 nM | 0.63 nM | 2.3 nM | 
C[C@@H]1C=C(F)[C@H](C)N2CN1n1cc(C(=O)NCc3c(F)cc(F)cc3F)c(=O)c(O)c1C2=O [Example C55, (1S,2R,5S)-4-fluoro-8-hydroxy-2,5-dimethyl-7,9-dioxo-N-(2,4,6-trifluorobenzyl)-2,5,7,9-tetrahydro-1,6-methanopyrido[1,2-b][1,2,5]triazonine-10-carboxamide] | 29500 nM | 515 nM | 0.71 nM | 1.3 nM | 
C[C@@H]1C[C@@H](C(F)F)[C@H](C)N2CN1n1cc(C(=O)NCc3c(F)cc(F)cc3F)c(=O)c(O)c1C2=O [Example C56, (1S,2R,4R,5S)-4-(difluoromethyl)-8-hydroxy-2,5-dimethyl-7,9-dioxo-N-(2,4,6-trifluorobenzyl)-2,3,4,5,7,9-hexahydro-1,6-methanopyrido[1,2-b][1,2,5]triazonine-10-carboxamide] | 10100 nM | 24.9 nM | 0.52 nM |  | 1.1 nM
C[C@@H]1C[C@@H](CF)[C@H](C)N2CN1n1cc(C(=O)NCc3c(F)cc(F)cc3F)c(=O)c(O)c1C2=O [Example C57, (1S,2R,4R,5S)-4-(fluoromethyl)-8-hydroxy-2,5-dimethyl-7,9-dioxo-N-(2,4,6-trifluorobenzyl)-2,3,4,5,7,9-hexahydro-1,6-methanopyrido[1,2-b][1,2,5]triazonine-10-carboxamide] | 8930 nM | 11.6 nM | 0.27 nM | 1.2 nM | 
C[C@H]1[C@@H](F)C[C@H](C)N2CN1C(=O)c1c(O)c(=O)c(C(=O)NCc3ccc(F)cc3F)cn12 [Example C58, (1S,2S,4S,5S)—N-(2,4-difluorobenzyl)-4-fluoro-8-hydroxy-2,5-dimethyl-7,9-dioxo-2,3,4,5,7,9-hexahydro-1,6-methanopyrido[1,2-b][1,2,5]triazonine-10-carboxamide] | 11300 nM | 294 nM | 0.28 nM | 1.5 nM | 
C[C@@H]1C=C[C@@H](C)N2CN1C(=O)c1c(O)c(=O)c(C(=O)NCc3c(F)cc(F)cc3F)cn12 [Example C64, (1S,2R,5R)-8-hydroxy-2,5-dimethyl-7,9-dioxo-N-(2,4,6-trifluorobenzyl)-2,5,7,9-tetrahydro-1,6-methanopyrido[1,2-b][1,2,5]triazonine-10-carboxamide] | 11400 nM | 150 nM | 0.27 nM | 0.8 nM | 
C[C@@H]1CC[C@@H](C)N2CN1C(=O)c1c(O)c(=O)c(C(=O)NCc3c(F)cc(F)cc3F)cn12 [Example C65, (1S,2R,5R)-8-hydroxy-2,5-dimethyl-7,9-dioxo-N-(2,4,6-trifluorobenzyl)-2,3,4,5,7,9-hexahydro-1,6-methanopyrido[1,2-b][1,2,5]triazonine-10-carboxamide] | 15400 nM | 63.8 nM | 0.44 nM | 1.8 nM | 
C[C@@H]1CC[C@@H](C)N2CN1C(=O)c1c(O)c(=O)c(C(=O)NCc3ccc(F)cc3F)cn12 [Example C67, (1S,2R,5R)—N-(2,4-difluorobenzyl)-8-hydroxy-2,5-dimethyl-7,9-dioxo-2,3,4,5,7,9-hexahydro-1,6-methanopyrido[1,2-b][1,2,5]triazonine-10-carboxamide] | 25500 nM | 35.3 nM | 0.51 nM | 1.9 nM | 
C[C@@H]1C=CCN2CN1n1cc(C(=O)NCc3c(F)cc(F)cc3F)c(=O)c(O)c1C2=O [Example C70, (1S,2R)-8-hydroxy-2-methyl-7,9-dioxo-N-(2,4,6-trifluorobenzyl)-2,5,7,9-tetrahydro-1,6-methanopyrido[1,2-b][1,2,5]triazonine-10-carboxamide] | 11600 nM | 11.5 nM | 0.54 nM | 1.2 nM | 
CC[C@@H]1CC[C@H](C)N2CN1n1cc(C(=O)NCc3c(F)cc(F)cc3F)c(=O)c(O)c1C2=O [Example C73, (1S,2R,5S)-2-ethyl-8-hydroxy-5-methyl-7,9-dioxo-N-(2,4,6-trifluorobenzyl)-2,3,4,5,7,9-hexahydro-1,6-methanopyrido[1,2-b][1,2,5]triazonine-10-carboxamide] | 7640 nM | 276 nM | 0.63 nM | 0.8 nM | 
